Measurements as given in the NIST ThermoML archive (doi:10.1007/s10765-010-0885-7).

Details: Gas, Spherical cavity resonance method

C=C(F)C(F)(F)F [2,3,3,3-tetrafluoro-1-propene]
Details	speed of sound [m/s]
278.15 K, 25.44 kPa	148.09
278.15 K, 50.62 kPa	147.25
278.15 K, 75.68 kPa	146.39
278.15 K, 101 kPa	145.51
278.15 K, 201.3 kPa	141.89
278.15 K, 300.48 kPa	138.02
293.15 K, 25.29 kPa	151.93
293.15 K, 50.99 kPa	151.19
293.15 K, 75.57 kPa	150.47
293.15 K, 101.23 kPa	149.72
293.15 K, 201.08 kPa	146.67
293.15 K, 292.42 kPa	143.72
293.15 K, 401.24 kPa	139.99
308.15 K, 25.26 kPa	155.68
308.15 K, 50.39 kPa	155.05
308.15 K, 75.5 kPa	154.42
308.15 K, 100.64 kPa	153.79
308.15 K, 200.87 kPa	151.18
308.15 K, 300.85 kPa	148.47
308.15 K, 398.92 kPa	145.68
323.15 K, 25.34 kPa	159.31
323.15 K, 50.23 kPa	158.76
323.15 K, 75.47 kPa	158.2
323.15 K, 100.59 kPa	157.64
323.15 K, 200.87 kPa	155.39
323.15 K, 300.93 kPa	153.07
323.15 K, 401.34 kPa	150.66
338.15 K, 25.37 kPa	162.84
338.15 K, 50.45 kPa	162.36
338.15 K, 75.5 kPa	161.87
338.15 K, 100.77 kPa	161.37
338.15 K, 200.63 kPa	159.42
338.15 K, 301.18 kPa	157.41
338.15 K, 407.01 kPa	155.23
353.15 K, 25.67 kPa	166.32
353.15 K, 50.67 kPa	165.86
353.15 K, 75.38 kPa	165.44
353.15 K, 100.55 kPa	165.01
353.15 K, 200.64 kPa	163.29
353.15 K, 299.53 kPa	161.57
353.15 K, 401.3 kPa	159.76
